{
  "source": "patent US5733917A",
  "about": "“Heterocyclic compound” (Taisho Pharmaceutical Co., Ltd., priority 1994, dated 1998)",
  "key": {"serotonin 4 receptors": {"system": "serotonin 4 receptors", "conditions": "stimulants of serotonin 4 receptors; Alimentary Pharmacology and Therapeutics, vol. 6, page 273, 1992; cited from earlier work"}, "serotonin 4 receptor": {"target": "T1, serotonin 4 receptor (Cavia porcellus, UniProt O70528)", "T1 construct": "from tissue; host or cells: ileum longitudinal muscle strips of Hartley guinea pigs", "T1 sequence (O70528 whole entry)": "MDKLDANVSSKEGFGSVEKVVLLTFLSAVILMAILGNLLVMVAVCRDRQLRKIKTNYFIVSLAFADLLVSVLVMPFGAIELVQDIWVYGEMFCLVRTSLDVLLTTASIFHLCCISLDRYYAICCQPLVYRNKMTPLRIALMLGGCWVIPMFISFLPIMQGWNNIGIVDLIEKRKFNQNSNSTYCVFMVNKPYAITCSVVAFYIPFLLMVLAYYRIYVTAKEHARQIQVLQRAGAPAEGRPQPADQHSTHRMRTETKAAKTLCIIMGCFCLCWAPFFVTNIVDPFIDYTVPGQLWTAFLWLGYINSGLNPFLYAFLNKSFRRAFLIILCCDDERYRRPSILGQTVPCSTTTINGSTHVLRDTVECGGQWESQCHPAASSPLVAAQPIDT", "assay": "Stimulating action test on serotonin 4 receptor: twitch responses in electrically stimulated longitudinal muscle strips of guinea pig ileum", "type": "cell-based, guinea pig (Hartley)", "text": "Stimulating Action Test on Serotonin 4 Receptor Test Drugs\nTest Drug 1: Compound 1 of the present invention\nTest Drug 2: The compound described in Japanese Patent Kokai No. 3-197462 represented by the following formula: [drawing 5]\nTest Drug 3: The compound described in Japanese Patent Kokai No. 4-226980 represented by the following formula: [drawing 6]\nTwitch responses were examined in longitudinal muscle strips of guinea pig according to a modification of the method described in The Journal of Pharmacology and Experimental Therapeutics, vol. 252, page 1378, 1990.\nFrom Hartley guinea pigs, a section of ileum 25 cm in length and proximal to the ileocecal junction was removed. The longitudinal muscle strips obtained from two segments of ileum about 4 cm each in length were used for this test. The longitudinal muscle strips were suspended in Kreb's solution at 32° to 34° C. and bubbled with 95% O2 and 5% CO2 under a load of about 0.8 g. The responses were recorded under an electrical stimulation of 0.2 Hz, 1 msec pulse duration, using force displacement transducers. The longitudinal muscle strips were allowed to stand at supramaximal voltage for about an hour, and thereby were stable. After it was confirmed that the twitch responses were enhanced by 10^-8 M 5-HT, each test drug was examined on its activity for twitch responses. The test was carried out by exposing the strips to cumulative additions of the test drug at least at 45 minute intervals."}, "gastrointestinal motor": {"system": "gastrointestinal motor", "assay": "Action on gastrointestinal motor in dogs (strain gauge force transducers, motility index)", "type": "in vivo, Beagle dogs", "conditions": "for Motility Index: dog, gastric motor after feeding", "description": "Action on Gastrointestinal Motor in Dogs\nThe test was carried out by a modification of the method described in Gastroenterologia Japonica, vol. 12, page 275, 1977.\nBeagle dogs of both sexes weighing 9 to 15 kg were anesthetized with sodium pentobarbital and strain gauge force transducers were sutured on 5 portions, i.e. for determining antral, duodenum, jejunal, ileal and colonel motor responses. A cannula for administering a drug was mounted persistently into the jugular vein. After recovery of the surgery, motor responses of the dog under no-anesthesia without restriction at those portions on the gastrointestinal tract in both during a fasting period and after feeding were determined in the conscious […].\n(§1) The compound of the present invention was administered after dissolving in saline aqueous solution.\nThe motor index is shown in terms of a proportion (%) of a mean value calculated for 15 minutes to a value prior to administration (0 minute). The value for 0 minute was made a mean value for 30 minutes prior to the administration.\nTables 2 and 3 show the activity of the compound of the present invention in doses of 0.3 mg/kg for intravenous route and 1 mg/kg for oral route, respectively, on the gastric motor action after feeding."}, "gastric emptying": {"system": "gastric emptying", "assay": "Action on gastric emptying in rats (clonidine-treated, residual rate of glass balls in stomach)", "type": "in vivo, Male wistar rats", "conditions": "rat; for Residual rate in Stomach: relative to clonidine hydrochloride-treated animal", "description": "Action on Gastric Emptying in Rats\nThe test was carried out by a modification of the method described in British Journal of Pharmacology, vol. 91, page 263, 1987.\nMale wistar rats weighing 170 to 220 g were used after fasting for 24 hours.\nClonidine hydrochloride of 30 μg/kg was administered subcutaneously, and after 30 minutes the compound of the present invention was administered subcutaneously. After 30 minutes 1 ml of glass balls (500 mg/ml) was administered orally. After 30 minutes the glass balls remained in the stomach were recovered and weighed to determine the rate [residual rate in stomach (%)] to the residual amount in the stomach of the clonidine hydrochloride-treated animal.\nas §1"}, "[1]": {"assay": "Toxicity examination of mouse single administration (acute toxicity)", "conditions": "in vivo, single oral administration, read-out: LD value", "description": "With respect to toxicity of Compound (1) represented by Formula (I) which is an effective ingredient of the pharmaceutical composition of the present invention, as a result of the toxicity examination of mouse single administration (acute toxicity), the LD value is more than 500 mg/kg by oral administration."}, "[2]": {"conditions": "guinea pig ileum longitudinal muscle strips, electrical stimulation 0.2 Hz, 1 msec, cumulative additions at least at 45 minute intervals, read-out: ED50 (the source's name)"}},
  "note": "Like-named read-outs stand apart in the source and are kept apart here.",
  "data": [
    {"compound": "COc1cc(N)c(Cl)cc1C(=O)NC1CCN(CCCOc2ccc(F)cc2)CC1OC", "note": "(centres unmarked) [Cisapride]", "values": [
      {"measurement": "gastrointestinal motor functions", "setting": "serotonin 4 receptors", "value": "accelerate gastrointestinal motor functions"}
    ]},
    {"compound": "CN1[C@@H]2CC[C@H]1C[C@@H](OC(=O)c1cc3ccccc3[nH]c1=O)C2", "note": "[Test Drug 2]", "values": [
      {"measurement": "EC50", "setting": "serotonin 4 receptor; [2]", "value": "> 3", "unit": "µM"}
    ]},
    {"compound": "CC(C)n1c(=O)c(C(=O)O[C@H]2C[C@H]3CC[C@@H](C2)N3C)cc2ccccc21", "note": "[Compound (1), endo-(8-methyl-8-azabicyclo[3.2.1]oct-3-yl) 1-isopropyl-2(1H)-quinolone-3-carboxylate]", "values": [
      {"measurement": "EC50", "setting": "serotonin 4 receptor", "value": 0.0213, "unit": "µM"},
      {"measurement": "Motility Index", "setting": "gastrointestinal motor; intravenous 0.3 mg/kg, 0 min (value prior to administration, = 100), N = 3", "value": 100, "unit": "%"},
      {"measurement": "Motility Index", "setting": "gastrointestinal motor; intravenous 0.3 mg/kg, 15 min, N = 3, p < 0.05", "value": 247.8, "unit": "%"},
      {"measurement": "Motility Index", "setting": "gastrointestinal motor; intravenous 0.3 mg/kg, 30 min, N = 3, p < 0.01", "value": 219.8, "unit": "%"},
      {"measurement": "Motility Index", "setting": "gastrointestinal motor; intravenous 0.3 mg/kg, 45 min, N = 3, p < 0.01", "value": 178.8, "unit": "%"},
      {"measurement": "Motility Index", "setting": "gastrointestinal motor; intravenous 0.3 mg/kg, 60 min, N = 3, p < 0.01", "value": 162.3, "unit": "%"},
      {"measurement": "Motility Index", "setting": "gastrointestinal motor; intravenous 0.3 mg/kg, 75 min, N = 3, p < 0.001", "value": 181.0, "unit": "%"},
      {"measurement": "Motility Index", "setting": "gastrointestinal motor; intravenous 0.3 mg/kg, 90 min, N = 3", "value": 166.7, "unit": "%"},
      {"measurement": "Motility Index", "setting": "gastrointestinal motor; intravenous 0.3 mg/kg, 105 min, N = 3", "value": 150.1, "unit": "%"},
      {"measurement": "Motility Index", "setting": "gastrointestinal motor; intravenous 0.3 mg/kg, 120 min, N = 3", "value": 123.5, "unit": "%"},
      {"measurement": "Motility Index", "setting": "gastrointestinal motor; oral 1 mg/kg, 0 min (value prior to administration, = 100), N = 3", "value": 100, "unit": "%"},
      {"measurement": "Motility Index", "setting": "gastrointestinal motor; oral 1 mg/kg, 15 min, N = 3", "value": 179.5, "unit": "%"},
      {"measurement": "Motility Index", "setting": "gastrointestinal motor; oral 1 mg/kg, 30 min, N = 3", "value": 238.6, "unit": "%"},
      {"measurement": "Motility Index", "setting": "gastrointestinal motor; oral 1 mg/kg, 45 min, N = 3", "value": 295.0, "unit": "%"},
      {"measurement": "Motility Index", "setting": "gastrointestinal motor; oral 1 mg/kg, 60 min, N = 3", "value": 238.8, "unit": "%"},
      {"measurement": "Motility Index", "setting": "gastrointestinal motor; oral 1 mg/kg, 75 min, N = 3", "value": 252.3, "unit": "%"},
      {"measurement": "Motility Index", "setting": "gastrointestinal motor; oral 1 mg/kg, 90 min, N = 3", "value": 193.9, "unit": "%"},
      {"measurement": "Motility Index", "setting": "gastrointestinal motor; oral 1 mg/kg, 105 min, N = 3", "value": 251.7, "unit": "%"},
      {"measurement": "Motility Index", "setting": "gastrointestinal motor; oral 1 mg/kg, 120 min, N = 3", "value": 257.8, "unit": "%"},
      {"measurement": "Motility Index", "setting": "gastrointestinal motor; oral 1 mg/kg, 135 min, N = 3, p < 0.05", "value": 220.6, "unit": "%"},
      {"measurement": "Motility Index", "setting": "gastrointestinal motor; oral 1 mg/kg, 150 min, N = 3", "value": 158.1, "unit": "%"},
      {"measurement": "Motility Index", "setting": "gastrointestinal motor; oral 1 mg/kg, 165 min, N = 3", "value": 201.9, "unit": "%"},
      {"measurement": "Motility Index", "setting": "gastrointestinal motor; oral 1 mg/kg, 180 min, N = 3, p < 0.05", "value": 188.9, "unit": "%"},
      {"measurement": "motor action on the gastrointestinal tract", "setting": "gastrointestinal motor; intravenous and oral administrations, both during the fasting period and after feeding, vehicle alone no influence", "value": "showed acceleration on the motor action on the gastrointestinal tract"},
      {"measurement": "Residual rate in Stomach", "setting": "gastric emptying; subcutaneous 0.03 mg/kg, 5 cases", "value": 59.2, "unit": "%"},
      {"measurement": "Residual rate in Stomach", "setting": "gastric emptying; subcutaneous 0.1 mg/kg, 5 cases", "value": 50.4, "unit": "%"},
      {"measurement": "Residual rate in Stomach", "setting": "gastric emptying; subcutaneous 0.3 mg/kg, 6 cases", "value": 38.7, "unit": "%"},
      {"measurement": "Residual rate in Stomach", "setting": "gastric emptying; subcutaneous 1.0 mg/kg, 6 cases", "value": 40.0, "unit": "%"},
      {"measurement": "action on gastric emptying", "setting": "gastric emptying; subcutaneous administration", "value": "inhibited dose-dependent accelerating action on gastric emptying"},
      {"measurement": "LD50", "setting": "[1]", "value": "> 500", "unit": "mg/kg"}
    ]},
    {"compound": "NCCc1c[nH]c2ccc(O)cc12", "note": "[Compound 5-HT]", "values": [
      {"measurement": "twitch responses", "setting": "serotonin 4 receptor; 10^-8 M 5-HT, confirmation before test drug", "value": "enhanced"}
    ]},
    {"compound": "COc1cc(N)c(Cl)cc1C(=O)NC1CCN2CCCC1C2", "note": "(centres unmarked) [renzapride]", "values": [
      {"measurement": "gastrointestinal motor functions", "setting": "serotonin 4 receptors", "value": "accelerate gastrointestinal motor functions"}
    ]},
    {"compound": "CCCCn1c(=O)c(C(=O)N[C@H]2C[C@H]3CC[C@@H](C2)N3C)c(O)c2ccccc21", "note": "[Test Drug 3]", "values": [
      {"measurement": "EC50", "setting": "serotonin 4 receptor; [2]", "value": "> 3", "unit": "µM"}
    ]}
  ]
}
